Our source for the Ki and EC50 values is patent US10035800B2 (AbbVie Inc., priority 2013, dated 2018).

One test deals with T1, BRD4 (BDI_K57-E168) (Homo sapiens, UniProt O60885).
T1 construct: BD1: amino acids K57-E168; made in house
Put plainly: TR-FRET bromodomain binding assay, first bromodomain of BRD4. The conditions noted are these: 100 nM probe. An outline of the steps: (§1)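 TR-FRET displacement of an Alexa647-labelled BET-inhibitor probe from His-tagged BRD4 BD1 or BD2 (8 nM), read via 1 nM Eu-anti-His antibody after 1 h at room temperature. Buffer was 20 mM sodium phosphate pH 6.0 with 2% DMSO. Probe was 100 nM for BDI and 30 nM for BDII. IC50 came from 4-parameter fits, and Ki from IC50, probe Kd and probe concentration.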

The next test has as its target T2, BRD4 (BDII_E352-M457) (Homo sapiens, UniProt O60885).
T2 construct: protocol; made in house
Put plainly: TR-FRET bromodomain binding assay, second bromodomain of BRD4. The conditions noted are these: 30 nM probe. An outline of the steps: as §1

In test [1] the test system is breast cancer cell line MX-1. Put plainly: MX-1 cell line proliferation assay. The format is cell-based. The conditions noted are these: MX-1 cells, 3-day proliferation assay, Cell Titer Glo; read-out: Cellular proliferation: EC50. As for the experimental part:
MX-1 Cell Line Proliferation Assay
The impact of compounds of the Examples on cancer cell proliferation was determined using the breast cancer cell line MX-1 (ATCC) in a 3-day proliferation assay and the data are reported in Table 1. MX-1 cells were maintained in RPMI 1640 medium (Sigma) supplemented with 10% FBS at 37 C.° and an atmosphere of 5% CO2. For compound testing, MX-1 cells were plated in 96-well black bottom plates at a density of 5000 cells/well in 90 μL of culture media and incubated at 37° overnight to allow cell adhesion and spreading. Compound dilution series were prepared in DMSO via a 3-fold serial dilution from 3 mM to 0.1 μM. The DMSO dilution series were then diluted 1:100 in phosphate buffered saline, and 10 μL of the resulted solution were added to the appropriate wells of the MX-1 cell plate. The final compound concentrations in the wells were 3, 1, 0.3, 0.1, 0.03, 0.01, 0.003, 0.001, 0.0003, and 0.0001 μM or 1, 0.3, 0.1, 0.03, 0.01, 0.003, 0.001, 0.0003, 0.0001, and 0.00003 μM.
Luminescence readings from the Cell Titer Glo assay were normalized to the DMSO treated cells and analyzed using the GraphPad Prism software with sigmoidal curve fitting to obtain EC50s. The minimum significant ratio (MSR) was determined to evaluate assay reproducibility (Eastwood et al., (2006) J Biomol Screen, 11: 253-261). The overall MSR was determined to be 2.1 and a moving MSR (last six run MSR overtime) has been <2.

The mark [2] stands for this setting: TR-FRET assay protocol G (compound 0.92 μM-15 pM).
[3] abbreviates: TR-FRET assay protocol E (compound 9.19 μM-150 pM).

Where only a bound is given, the exact number is not on record here.

For the compound `Cn1cc2c3c(c[nH]c3c1=O)C(CN1C(=O)c3ccccc3C1=O)N(c1ccc(F)cc1F)c1ccc(CS(C)(=O)=O)cc1-2` [Example 204, (S)-2-((4-(2,4-difluorophenyl)-10-methyl-7-((methylsulfonyl)methyl)-11-oxo-3,4,10,11-tetrahydro-1H-1,4,10-triazadibenzo[cd,f]azulen-3-yl)methyl)isoindoline-1,3-dione], the Ki at BRD4 (BDI_K57-E168) (setting [2]) came to 0.0461 µM; on BRD4 (BDII_E352-M457) (setting [2]) it was 0.00122 µM. Further, the EC50 in test [1] was over 1 µM.

Regarding `Cn1cc2c3c(c[nH]c3c1=O)CN(c1cncnc1)c1ccc(CS(C)(=O)=O)cc1-2` [Example 248, 10-methyl-7-((methylsulfonyl)methyl)-4-(pyrimidin-5-yl)-3,4-dihydro-1H-1,4,10-triazadibenzo[cd,f]azulen-11(10H)-one], the Ki at BRD4 (BDI_K57-E168) (setting [2]) was 0.00339 µM; on BRD4 (BDII_E352-M457) (setting [2]), 0.00329 µM. Moreover, the EC50 in test [1] is 0.0256 µM.

Consider `CCNC(=O)N1Cc2c[nH]c3c(=O)n(C)cc(c23)-c2cc(CS(C)(=O)=O)ccc21` [Example 45, N-ethyl-10-methyl-7-((methylsulfonyl)methyl)-11-oxo-10,11-dihydro-1H-1,4,10-triazadibenzo[cd,f]azulene-4(3H)-carboxamide], for which the inhibitory constant (Ki) came to 0.00392 µM on BRD4 (BDI_K57-E168) (setting [2]) and 0.00375 µM on BRD4 (BDII_E352-M457) (setting [2]). Further, the EC50 in test [1] stood at 0.141 µM.

For `Cn1cc2c3c(c[nH]c3c1=O)C(CO)N(c1ccc(F)cc1F)c1ccc(CS(C)(=O)=O)cc1-2` (stereo not drawn) [Example 200, 4-(2,4-difluorophenyl)-3-(hydroxymethyl)-10-methyl-7-((methylsulfonyl)methyl)-3,4-dihydro-1H-1,4,10-triazadibenzo[cd,f]azulen-11(10H)-one], the values for the inhibition constant Ki at BRD4 (BDI_K57-E168) (setting [2]) and on BRD4 (BDII_E352-M457) (setting [2]) were 0.00818 µM and 0.00205 µM, respectively. Also, in test [1], the EC50 stood at 0.0342 µM.

Regarding `Cn1cc2c3c(c[nH]c3c1=O)CN(c1ncc(F)cn1)c1ccc(CS(C)(=O)=O)cc1-2` [Example 258, 4-(5-fluoropyrimidin-2-yl)-10-methyl-7-((methylsulfonyl)methyl)-3,4-dihydro-1H-1,4,10-triazadibenzo[cd,f]azulen-11(10H)-one], the figures for the inhibition constant Ki at BRD4 (BDI_K57-E168) (setting [2]) and at BRD4 (BDII_E352-M457) (setting [2]) were 0.00092 µM and 0.00239 µM, respectively. Also, the EC50 in test [1] was 0.00443 µM.

Consider `COC(=O)CCC(=O)N1Cc2c[nH]c3c(=O)n(C)cc(c23)-c2cc(CS(C)(=O)=O)ccc21` [Example 111, methyl 4-(10-methyl-7-((methylsulfonyl)methyl)-11-oxo-10,11-dihydro-1H-1,4,10-triazadibenzo[cd,f]azulen-4(3H)-yl)-4-oxobutanoate], for which the results for the inhibition constant (Ki) on BRD4 (BDI_K57-E168) (setting [2]) and on BRD4 (BDII_E352-M457) (setting [2]) were 0.0077 µM and 0.00331 µM, respectively. Also, the EC50 in test [1] is 0.084 µM.

Take `Cn1cc2c3c(c[nH]c3c1=O)C(C(=O)NCCCCc1ccccc1)N(c1ccc(F)cc1F)c1ccc(CS(C)(=O)=O)cc1-2` (stereo not drawn) [Example 168, 4-(2,4-difluorophenyl)-10-methyl-7-((methylsulfonyl)methyl)-11-oxo-N-(4-phenylbutyl)-3,4,10,11-tetrahydro-1H-1,4,10-triazadibenzo[cd,f]azulene-3-carboxamide]: the inhibitory constant (Ki) at BRD4 (BDI_K57-E168) (setting [2]) worked out at 0.0932 µM; on BRD4 (BDII_E352-M457) (setting [2]), 0.124 µM.

For `Cn1cc(-c2[nH]c3c(=O)n(C)cc4c3c2CN(c2ccccc2)c2ccc(S(C)(=O)=O)cc2-4)cn1` [Example 274, 10-methyl-2-(1-methyl-1H-pyrazol-4-yl)-7-(methylsulfonyl)-4-phenyl-3,4-dihydro-1H-1,4,10-triazadibenzo[cd,f]azulen-11(10H)-one], the inhibitory constant (Ki) at BRD4 (BDI_K57-E168) (setting [2]) is 0.00283 µM; on BRD4 (BDII_E352-M457) (setting [2]) it was 0.00156 µM.

With `CCS(=O)(=O)c1ccc2c(c1)-c1cn(C)c(=O)c3[nH]cc(c13)CN2[C@@H](C)c1ccccc1` [Example 267, (S)-7-(ethylsulfonyl)-10-methyl-4-(1-phenylethyl)-3,4-dihydro-1H-1,4,10-triazadibenzo[cd,f]azulen-11(10H)-one], the Ki on BRD4 (BDI_K57-E168) (setting [2]) was determined as 0.0727 µM; at BRD4 (BDII_E352-M457) (setting [2]) it was 0.0947 µM.

On to `COc1cccc(CNC(=O)N2Cc3c[nH]c4c(=O)n(C)cc(c34)-c3cc(CS(C)(=O)=O)ccc32)c1` [Example 65, N-(3-methoxybenzyl)-10-methyl-7-((methylsulfonyl)methyl)-11-oxo-10,11-dihydro-1H-1,4,10-triazadibenzo[cd,f]azulene-4(3H)-carboxamide], for which the Ki on BRD4 (BDI_K57-E168) (setting [2]) was over 0.238 µM; on BRD4 (BDII_E352-M457) (setting [2]), 0.238 µM.

For `Cn1cc2c3c(c[nH]c3c1=O)CN(Cc1ccccc1OCC(N)=O)c1ccc(CS(C)(=O)=O)cc1-2` [Example 262, 2-(2-((10-methyl-7-((methylsulfonyl)methyl)-11-oxo-10,11-dihydro-1H-1,4,10-triazadibenzo[cd,f]azulen-4(3H)-yl)methyl)phenoxy)acetamide], the inhibition constant Ki is 0.00937 µM on BRD4 (BDI_K57-E168) (setting [2]) and 0.0132 µM on BRD4 (BDII_E352-M457) (setting [2]).

Turning to `CN1CCC(N2Cc3c[nH]c4c(=O)n(C)cc(c34)-c3cc(CS(C)(=O)=O)ccc32)CC1` [Example 181], the results for the Ki at BRD4 (BDI_K57-E168) (setting [2]) and on BRD4 (BDII_E352-M457) (setting [2]) were 0.00333 µM and 0.0171 µM, respectively.

On to “10-methyl-7-((methylsulfonyl)methyl)-4-(1-((2-(trimethylsilyl)ethoxy)methyl)-1H-indazol-5-yl)-3,4-dihydro-1H-1,4,10-triazadibenzo[cd,f]azulen-11(10H)-one [Example 233]”, for which the inhibition constant Ki on BRD4 (BDI_K57-E168) (setting [2]) worked out at 0.00615 µM; on BRD4 (BDII_E352-M457) (setting [2]) it was 0.00377 µM.

With `Cn1cc2c3c(c[nH]c3c1=O)C(C(=O)NCCCc1ccccc1)N(c1ccc(F)cc1F)c1ccc(CS(C)(=O)=O)cc1-2` (racemic) [Example 160, 4-(2,4-difluorophenyl)-10-methyl-7-((methylsulfonyl)methyl)-11-oxo-N-(3-phenylpropyl)-3,4,10,11-tetrahydro-1H-1,4,10-triazadibenzo[cd,f]azulene-3-carboxamide], the Ki at BRD4 (BDI_K57-E168) (setting [2]) turned out to be 0.125 µM; on BRD4 (BDII_E352-M457) (setting [2]), 0.118 µM.

As for `COC(=O)CCC1Nc2ccc(CS(C)(=O)=O)cc2-c2cn(C)c(=O)c3[nH]cc1c23` (racemic) [Example 17, methyl 3-(10-methyl-7-((methylsulfonyl)methyl)-11-oxo-3,4,10,11-tetrahydro-1H-1,4,10-triazadibenzo[cd,f]azulen-3-yl)propanoate], the inhibition constant (Ki) on BRD4 (BDI_K57-E168) (setting [3]) was 0.165 µM; on BRD4 (BDII_E352-M457) (setting [3]) it was 0.0539 µM.

As to “N-(2-chloroethyl)-10-methyl-7-((methylsulfonyl)methyl)-11-oxo-10,11-dihydro-1H-1,4,10-triazadibenzo[cd,f]azulene-4(3H)-carboxamide [Example 66]”, the Ki on BRD4 (BDI_K57-E168) (setting [2]) was over 0.238 µM; at BRD4 (BDII_E352-M457) (setting [2]) it was over 0.408 µM.

In the case of `COCCOC(=O)N1Cc2c[nH]c3c(=O)n(C)cc(c23)-c2cc(CS(C)(=O)=O)ccc21` [Example 86, 2-methoxyethyl 10-methyl-7-((methylsulfonyl)methyl)-11-oxo-10,11-dihydro-1H-1,4,10-triazadibenzo[cd,f]azulene-4(3H)-carboxylate], the Ki at BRD4 (BDI_K57-E168) (setting [2]) came out at 0.0103 µM; on BRD4 (BDII_E352-M457) (setting [2]) it was 0.0139 µM.

Take “2-(3-(10-methyl-7-((methylsulfonyl)methyl)-11-oxo-10,11-dihydro-1H-1,4,10-triazadibenzo[cd,f]azulen-4(3H)-yl)pyrrolidin-1-yl)acetic acid [Example 179]”: the values for the Ki at BRD4 (BDI_K57-E168) (setting [2]) and at BRD4 (BDII_E352-M457) (setting [2]) were 0.0201 µM and 0.0807 µM, respectively.

Turning to `Cn1cc2c3c(c[nH]c3c1=O)CN(/C=C(/C=C/c1ccccc1)c1ccccc1)c1c(F)cc(F)cc1-2` [Example 57, 4-((1Z,3E)-2,4-diphenylbuta-1,3-dien-1-yl)-5,7-difluoro-10-methyl-3,4-dihydro-1H-1,4,10-triazadibenzo[cd,f]azulen-11(10H)-one], the inhibition constant (Ki) on BRD4 (BDI_K57-E168) (setting [2]) came out at 0.0647 µM; on BRD4 (BDII_E352-M457) (setting [2]), 0.0906 µM.

`Cn1cc2c3c(c[nH]c3c1=O)CN(S(=O)(=O)c1ccc(Oc3ccccc3)cc1)c1ccc(CS(C)(=O)=O)cc1-2` [Example 79, 10-methyl-7-((methylsulfonyl)methyl)-4-((4-phenoxyphenyl)sulfonyl)-3,4-dihydro-1H-1,4,10-triazadibenzo[cd,f]azulen-11(10H)-one]: the results for the inhibition constant Ki at BRD4 (BDI_K57-E168) (setting [2]) and at BRD4 (BDII_E352-M457) (setting [2]) were over 0.238 µM and over 0.408 µM, respectively.

As for `Cn1cc2c3c(c[nH]c3c1=O)CN(S(=O)(=O)c1ccc(F)cc1)c1ccc(CS(C)(=O)=O)cc1-2` [Example 80, 4-((4-fluorophenyl)sulfonyl)-10-methyl-7-((methylsulfonyl)methyl)-3,4-dihydro-1H-1,4,10-triazadibenzo[cd,f]azulen-11(10H)-one], the Ki is over 0.238 µM on BRD4 (BDI_K57-E168) (setting [2]) and over 0.408 µM at BRD4 (BDII_E352-M457) (setting [2]).

Usually Ki stands for the dissociation constant of the complex between target and ligand, obtained from inhibition or displacement. A low value points to higher affinity.
